The record followed here is patent US20070049564A1 (Wyeth, priority 2005, published 2007).

One experiment has as its system E. coli. Description: Range of MIC for E. coli strains. Particulars: Escherichia coli.
The next experiment relates to Staph. Description: Range of MIC for Staph. strains, including MRSA. Particulars: Staphylococcus aureus.
The next experiment deals with Staph. aureus Smith. Description: In vivo activity (oral, iv; ED50) against Staph. aureus Smith in mice.
The mark [1] stands for this setting: 20 h, read-out: Range of MIC, E. coli (Mouse Serum).
[2] abbreviates: read-out: Minimum inhibitory concentration (MIC), E. coli (mouse serum).
Where [3] appears, read: MRSA, read-out: Minimum inhibitory concentration (MIC), Staph. (mouse serum).
Setting [4] is: MRSA, read-out: Minimum inhibitory concentration (MIC), Staph. (water).
Where [5] appears, read: MRSA, read-out: Range of MIC, Staph (Mouse Serum).
Where [6] appears, read: MRSA, read-out: Range of MIC, Staph (Water).
The mark [7] stands for this setting: Staphylococcus aureus, in Mus musculus, po, read-out: ED50 Staph Smith SOD.
Where [8] appears, read: iv, read-out: ED50 Staph Smith SIV.
[9] abbreviates: read-out: Range of MIC, E. coli (mouse serum).
[10] abbreviates: MRSA, read-out: Range of MIC, Staph. (mouse serum).
Where [11] appears, read: MRSA, read-out: Range of MIC, Staph. (water).
The mark [12] stands for this setting: read-out: Range of MIC, E. coli (Water).
Setting [13] is: read-out: Minimum inhibitory concentration (MIC), E. coli (water).

Converted amounts (≈) assume the structure as drawn. Where two headings read alike, the source gives them in different places.

Protocol for Staph. aureus Smith: Representative examples of compounds of Formula I were tested for the oral efficacy using S. aureus Smith in mice.

Consider `CCCCN(CC(=O)Nc1cc(N(C)C)c2c(c1O)C(=O)C1=C(O)[C@]3(O)C(=O)C(C(N)=O)=C(O)[C@@H](N(C)C)[C@@H]3C[C@@H]1C2)C(=O)OCOC(=O)c1ccco1` [Example 30, ({[(2-{[(5aR,6aS,7S,10aS)-9-(aminocarbonyl)-4,7-bis(dimethylamino)-1,8,10a,11-tetrahydroxy-10,12-dioxo-5,5a,6,6a,7,10,10a,12-octahydrotetracen-2-yl]amino}-2-oxoethyl)(butyl)amino]carbonyl}oxy)methyl 2-furate], for which the MIC with E. coli (setting [1]) fell in the range of 0.5 to 1 µg/mL (≈ 0.663 to 1.33 µM); in the experiment on E. coli (setting [2]), 0.5 to 1 µg/mL (≈ 0.663 to 1.33 µM); in the experiment with Staph. (setting [3]) it was 0.25 to 2 µg/mL (≈ 0.332 to 2.65 µM); with Staph. (setting [4]), 1 to 8 µg/mL (≈ 1.33 to 10.6 µM); in the experiment on Staph. (setting [5]) it was 0.25 to 2 µg/mL (≈ 0.332 to 2.65 µM); in the experiment on Staph. (setting [6]), 1 to 8 µg/mL (≈ 1.33 to 10.6 µM). Moreover, the values for the 50% effective dose (ED50) with Staph. aureus Smith (setting [7]) and in the experiment with Staph. aureus Smith (setting [8]) were 15.1 mg/kg and 0.41 mg/kg, respectively.

Turning to `CCCN(CC(=O)Nc1cc(N(C)C)c2c(c1O)C(=O)C1=C(O)[C@]3(O)C(=O)C(C(N)=O)=C(O)[C@@H](N(C)C)[C@@H]3C[C@@H]1C2)C(=O)OCOC(=O)c1ccco1` [Example 31, ({[(2-{[(5aR,6aS,7S,10aS)-9-(aminocarbonyl)-4,7-bis(dimethylamino)-1,8,10a,11-tetrahydroxy-10,12-dioxo-5,5a,6,6a,7,10,10a,12-octahydrotetracen-2-yl]amino}-2-oxoethyl)(propyl)amino]carbonyl}oxy)methyl 2-furate], the MIC in the experiment with E. coli (setting [1]) is 0.5 to 1 µg/mL (≈ 0.676 to 1.35 µM); with E. coli (setting [9]), 0.5 to 1 µg/mL (≈ 0.676 to 1.35 µM); with Staph. (setting [5]), 0.25 to 2 µg/mL (≈ 0.338 to 2.7 µM); in the experiment on Staph. (setting [6]) it was 0.5 to 4 µg/mL (≈ 0.676 to 5.41 µM); in the experiment with Staph. (setting [10]), 0.25 to 2 µg/mL (≈ 0.338 to 2.7 µM); with Staph. (setting [11]), 0.5 to 4 µg/mL (≈ 0.676 to 5.41 µM). For the same molecule, the values for the ED50 in the experiment on Staph. aureus Smith (setting [7]) and in the experiment with Staph. aureus Smith (setting [8]) were 11.1 mg/kg and 0.31 mg/kg, respectively.

`CCCCN(CC(=O)Nc1cc(N(C)C)c2c(c1O)C(=O)C1=C(O)[C@]3(O)C(=O)C(C(N)=O)=C(O)[C@@H](N(C)C)C3CC1C2)C(=O)OC(C)OC(C)=O` (stereo partly drawn) [Example 32, 1-({[(2-{[(7S,10aS)-9-(aminocarbonyl)-4,7-bis(dimethylamino)-1,8,10a,11-tetrahydroxy-10,12-dioxo-5,5a,6,6a,7,10,10a,12-octahydrotetracen-2-yl]amino}-2-oxoethyl)(butyl)amino]carbonyl}oxy)ethyl acetate]: the MIC in the experiment on E. coli (setting [1]) is 0.5 to 1 µg/mL; in the experiment with E. coli (setting [12]) it was 1 to 4 µg/mL; in the experiment with Staph. (setting [5]), 0.25 to 2 µg/mL; in the experiment with Staph. (setting [6]), 0.5 to 4 µg/mL. Besides, the ED50 turned out to be 7.7 mg/kg in the experiment with Staph. aureus Smith (setting [7]) and 0.56 mg/kg in the experiment on Staph. aureus Smith (setting [8]).

In the case of `CCCCN(CC(=O)Nc1cc(N(C)C)c2c(c1O)C(=O)C1=C(O)[C@]3(O)C(=O)C(C(N)=O)=C(O)[C@@H](N(C)C)C3CC1C2)C(=O)OCOC(=O)C1CCCCC1` (stereo partly drawn) [Example 34, ({[(2-{[(7S,10aS)-9-(aminocarbonyl)-4,7-bis(dimethylamino)-1,8,10a,11-tetrahydroxy-10,12-dioxo-5,5a,6,6a,7,10,10a,12-octahydrotetracen-2-yl]amino}-2-oxoethyl)(butyl)amino]carbonyl}oxy)methyl cyclohexanecarboxylate], the MIC lay in the range of 0.5 to 1 µg/mL (≈ 0.649 to 1.3 µM) in the experiment with E. coli (setting [1]); 0.5 to 1 µg/mL (≈ 0.649 to 1.3 µM) with E. coli (setting [2]); 4 to 16 µg/mL (≈ 5.2 to 20.8 µM) in the experiment on E. coli (setting [13]); 4 to 16 µg/mL (≈ 5.2 to 20.8 µM) in the experiment with E. coli (setting [12]); 0.25 to 4 µg/mL (≈ 0.325 to 5.2 µM) with Staph. (setting [3]); 0.25 to 4 µg/mL (≈ 0.325 to 5.2 µM) in the experiment on Staph. (setting [4]). Further, the MIC in the experiment with Staph. (setting [5]) and in the experiment on Staph. (setting [6]) was 0.25 to 4 µg/mL (≈ 0.325 to 5.2 µM) each time. Moreover, the median effective dose (ED50) was found to be 12.9 mg/kg in the experiment on Staph. aureus Smith (setting [7]) and 0.71 mg/kg in the experiment with Staph. aureus Smith (setting [8]).

For the molecule `CCCN(CC(=O)Nc1cc(N(C)C)c2c(c1O)C(=O)C1=C(O)[C@]3(O)C(=O)C(C(N)=O)=C(O)[C@@H](N(C)C)[C@@H]3C[C@@H]1C2)C(=O)OCOC(=O)C(C)(C)CC` [Example 37, ({[(2-{[(5aR,6aS,7S,10aS)-9-(aminocarbonyl)-4,7-bis(dimethylamino)-1,8,10a,11-tetrahydroxy-10,12-dioxo-5,5a,6,6a,7,10,10a,12-octahydrotetracen-2-yl]amino}-2-oxoethyl)(propyl)amino]carbonyl}oxy)methyl 2,2-dimethylbutanoate], the MIC with E. coli (setting [1]) was in the range of 2 to 4 µg/mL (≈ 2.69 to 5.38 µM); with E. coli (setting [12]), 4 to 32 µg/mL (≈ 5.38 to 43 µM); in the experiment on Staph. (setting [5]), 1 to 4 µg/mL (≈ 1.34 to 5.38 µM); in the experiment with Staph. (setting [6]), 2 to 4 µg/mL (≈ 2.69 to 5.38 µM). The ED50 turned out to be 4.1 mg/kg with Staph. aureus Smith (setting [7]) and 0.55 mg/kg with Staph. aureus Smith (setting [8]).

With `CCCCN(CC(=O)Nc1cc(N(C)C)c2c(c1O)C(=O)C1=C(O)[C@]3(O)C(=O)C(C(N)=O)=C(O)[C@@H](N(C)C)[C@@H]3C[C@@H]1C2)C(=O)OCOC(=O)C12CC3CC(CC(C3)C1)C2` [Example 39, ({[(2-{[(5aR,6aS,7S,10aS)-9-(aminocarbonyl)-4,7-bis(dimethylamino)-1,8,10a,11-tetrahydroxy-10,12-dioxo-5,5a,6,6a,7,10,10a,12-octahydrotetracen-2-yl]amino}-2-oxoethyl)(butyl)amino]carbonyl}oxy)methyl adamantane-1-carboxylate], the MIC lay within 1 to 4 µg/mL (≈ 1.22 to 4.87 µM) with E. coli (setting [1]); 1 to 4 µg/mL (≈ 1.22 to 4.87 µM) in the experiment with E. coli (setting [2]); 16 to 32 µg/mL (≈ 19.5 to 38.9 µM) in the experiment on E. coli (setting [13]); 16 to 32 µg/mL (≈ 19.5 to 38.9 µM) in the experiment on E. coli (setting [12]); 1 to 4 µg/mL (≈ 1.22 to 4.87 µM) in the experiment with Staph. (setting [3]); 2 to 16 µg/mL (≈ 2.43 to 19.5 µM) in the experiment on Staph. (setting [4]). The figures for the MIC with Staph. (setting [5]) and in the experiment on Staph. (setting [6]) were 1 to 4 µg/mL (≈ 1.22 to 4.87 µM) and 2 to 16 µg/mL (≈ 2.43 to 19.5 µM), respectively. Moreover, the ED50 in the experiment with Staph. aureus Smith (setting [7]) stood at 13.3 mg/kg; in the experiment on Staph. aureus Smith (setting [8]) it was 0.6 mg/kg.

`CCCN(CC(=O)Nc1cc(N(C)C)c2c(c1O)C(=O)C1=C(O)[C@]3(O)C(=O)C(C(N)=O)=C(O)[C@@H](N(C)C)[C@@H]3C[C@@H]1C2)C(=O)OCOC(=O)C12CC3CC(CC(C3)C1)C2` [Example 41, ({[(2-{[(5aR,6aS,7S,10aS)-9-(aminocarbonyl)-4,7-bis(dimethylamino)-1,8,10a,11-tetrahydroxy-10,12-dioxo-5,5a,6,6a,7,10,10a,12-octahydrotetracen-2-yl]amino}-2-oxoethyl)(propyl)amino]carbonyl}oxy)methyl adamantane-1-carboxylate]: the MIC with E. coli (setting [1]) was in the range of 0.5 to 4 µg/mL (≈ 0.619 to 4.95 µM); with E. coli (setting [12]), 16 to 64 µg/mL (≈ 19.8 to 79.2 µM); with E. coli (setting [9]), 0.5 to 4 µg/mL (≈ 0.619 to 4.95 µM); with E. coli (read-out: Range of MIC, E. coli (water)) it was 16 to 64 µg/mL (≈ 19.8 to 79.2 µM); with Staph. (setting [5]), 0.5 to 4 µg/mL (≈ 0.619 to 4.95 µM); in the experiment on Staph. (setting [6]), 1 to 8 µg/mL (≈ 1.24 to 9.9 µM). In addition, the MIC in the experiment on Staph. (setting [10]) lay within 0.5 to 4 µg/mL (≈ 0.619 to 4.95 µM); with Staph. (setting [11]) it was 1 to 8 µg/mL (≈ 1.24 to 9.9 µM). For the same molecule, the ED50 in the experiment with Staph. aureus Smith (setting [7]) amounted to 11.3 mg/kg; with Staph. aureus Smith (setting [8]), 0.83 mg/kg.

Take `CN(C)c1cc(NC(=O)CN(C(=O)OCOC(=O)C2CC2)C(C)(C)C)c(O)c2c1C[C@H]1C[C@H]3[C@H](N(C)C)C(O)=C(C(N)=O)C(=O)[C@@]3(O)C(O)=C1C2=O` [Example 56, ({[(2-{[(5aR,6aS,7S,10aS)-9-(aminocarbonyl)-4,7-bis(dimethylamino)-1,8,10a,11-tetrahydroxy-10,12-dioxo-5,5a,6,6a,7,10,10a,12-octahydrotetracen-2-yl]amino}-2-oxoethyl)(tert-butyl)amino]carbonyl}oxy)methyl cyclopropanecarboxylate]: the MIC is 0.25 to 2 µg/mL (≈ 0.344 to 2.75 µM) with E. coli (setting [1]); 4 to 32 µg/mL (≈ 5.5 to 44 µM) in the experiment with E. coli (read-out: Minimum inhibitory concentration (MIC), E. coli (Human Serum)); 0.25 to 1 µg/mL (≈ 0.344 to 1.37 µM) with Staph. (setting [5]); 1 to 4 µg/mL (≈ 1.37 to 5.5 µM) with Staph. (setting [6]); 0.25 to 2 µg/mL (≈ 0.344 to 2.75 µM) in the experiment on Staph. (read-out: Minimum inhibitory concentration (MIC), Staph (Human Serum)); 1 to 4 µg/mL (≈ 1.37 to 5.5 µM) in the experiment on Staph. (read-out: Minimum inhibitory concentration (MIC), Staph (Water)). Besides, the ED50 in the experiment with Staph. aureus Smith (setting [7]) is above 16 mg/kg; with Staph. aureus Smith (setting [8]), 0.79 mg/kg.

The term ED50 denotes the dose that gives a 50% effect, or the effect in half of the subjects.
